Common to all, as to format: in vivo
A short description of assay [1]: Post-emergence treatment, summary over harmful plants. The settings on record: 504 h, application rate of 0.32 kg of active substance or less per hectare, read-out: herbicidal action, post-emergence treatment (very good herbicidal activity). In short, it runs like this: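 Greenhouse-grown weeds and crops were sprayed at the one-leaf stage (2–3 weeks post-sowing) with WP or EC formulations plus 0.5% additive at 600 l/ha water. About 3 weeks later, activity was visually rated against untreated controls (100% = dead plants, 0% = like control).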

Another assay concerns Avena fatua. The experiment in a line: Post-emergence herbicidal activity against AVEFA. Conditions: dosage 320 g/ha, rated about 3 weeks after treatment; for pest or weed control at 320 g/ha: Avena fatua, 504 h. The essentials: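 Greenhouse pots of sandy loam; plants sprayed at one-leaf stage, 2 to 3 weeks after sowing, with WP or EC formulations in water plus 0.5% additive at 600 l/ha. Activity rated visually after about 3 weeks against untreated controls (100% = plants dead, 0% = like control).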

The subject of another assay is Polygonum convolvulus. Kind of assay: Pre-emergence herbicidal activity against POLCO. The settings on record: dosage 80 g/ha; for pest or weed control at 80 g/ha: Fallopia convolvulus, 504 h. The source says: 1. Pre-Emergence Herbicidal Action and Crop Plant Compatibility Seeds of monocotyledonous and dicotyledonous weed plants and crop plants are placed in plastic or wood fiber pots and covered with soil. The compounds of the invention, formulated in the form of wettable powders (WP) or as emulsion concentrates (EC), are then applied onto the surface of the covering soil as aqueous suspension or emulsion with addition of 0.5% additive at a water application rate of 600 l/ha (converted). After the treatment, the pots are placed in a greenhouse and kept under good growth conditions for the trial plants. After about 3 weeks, the effect of the preparations is scored visually in comparison with untreated controls as percentages. For example, 100% activity=the plants have died, 0% activity=like control plants. POLCO: Polygonum convolvulus SETVI: Setaria viridis

Another assay deals with Amaranthus retroflexus. Kind of assay: Post-emergence herbicidal activity against AMARE. Conditions: dosage 320 g/ha, rated about 3 weeks after treatment; for pest or weed control at 320 g/ha: Amaranthus retroflexus, 504 h. The protocol:
(§1) AMARE: Amaranthus retroflexus AVEFA: Avena fatua 2. Post-Emergence Herbicidal Action and Crop Plant Compatibility Seeds of monocotyledonous and dicotyledonous weeds and crop plants are placed in sandy loam in plastic or wood-fiber pots, covered with soil and cultivated in a greenhouse under controlled growth conditions. 2 to 3 weeks after sowing, the test plants are treated at the one-leaf stage. The compounds of the invention, formulated in the form of wettable powders (WP) or as emulsion concentrates (EC), are then sprayed onto the green parts of the plants as aqueous suspension or emulsion with addition of 0.5% additive at a water application rate of 600 l/ha (converted). After the test plants had been kept in the greenhouse under optimum growth conditions for about 3 weeks, the activity of the preparations is rated visually in comparison to untreated controls. For example, 100% activity=the plants have died, 0% activity=like control plants.

The subject of a further assay is Viola tricolor. Kind of assay: Post-emergence herbicidal activity against VIOTR. The settings on record: dosage 320 g/ha, rated about 3 weeks after treatment; for pest or weed control at 320 g/ha: Viola tricolor, 504 h. On the procedure: as §1, with “VIOTR: Viola tricolor” for “AMARE: Amaranthus retroflexus AVEFA: Avena fatua”

Consider `C=CC1(C(=O)N[C@H]2CO[C@@H](C(=O)OC)C2)CC(c2cccc(F)c2)=NO1` (relative stereo) [I-07, methyl cis-4-[[3-(3-fluorophenyl)-5-vinyl-4H-isoxazole-5-carbonyl]amino]tetrahydrofuran-2-carboxylate], for which the pest or weed control at 320 g/ha is 80 to 100% in assay [1] and 90% with Avena fatua. In the assay with Polygonum convolvulus, this compound gave a pest or weed control at 80 g/ha of 80%.

On to `C=CC1(C(=O)NC2=C(C(=O)OCC)COC2)CC(c2cc(F)cc(F)c2)=NO1` (centres unmarked) [I-23, ethyl 4-[[3-(3,5-difluorophenyl)-5-vinyl-4H-isoxazole-5-carbonyl]amino]-2,5-dihydrofuran-3-carboxylate], for which the values for the pest or weed control at 320 g/ha (in the assay with Amaranthus retroflexus; in assay [1]; in the assay with Avena fatua) were 80%, 80 to 100% and 100%, respectively.

Turning to `COC(=O)[C@H]1C[C@@H](NC(=O)C2(OC)CC(c3cc(C)cc(Br)c3)=NO2)CO1` (relative stereo) [I-08, methyl cis-4-[[3-(3-bromo-5-methylphenyl)-5-methoxy-4H-isoxazole-5-carbonyl]amino]tetrahydrofuran-2-carboxylate], the figures for the pest or weed control at 320 g/ha (in the assay with Viola tricolor; in assay [1]; with Avena fatua) were 80%, 80 to 100% and 100%, respectively. In the assay with Polygonum convolvulus, this compound gave a pest or weed control at 80 g/ha of 80%.

For the compound `CCOC(=O)[C@H]1C[C@@H](NC(=O)C2(C)CC(c3cccc(F)c3)=NO2)CO1` (mixture of isomers) [I-30, ethyl cis-4-[[(5RS)-3-(3-fluorophenyl)-5-methyl-4H-isoxazole-5-carbonyl]amino]tetrahydrofuran-2-carboxylate], the pest or weed control at 320 g/ha in assay [1] was 80 to 100%; with Avena fatua, 100%. The compound also came in with a pest or weed control at 80 g/ha in the assay on Polygonum convolvulus of 90%.

Take `CC1(C(=O)NC2COC(C(=O)O)C2)CC(c2cc(F)cc(F)c2)=NO1` (mixture of isomers) [I-41]: in the assay with Viola tricolor, the “Post-emergence herbicidal activity against VIOTR in %” value worked out at 80%. Besides, the “Post-emergence herbicidal activity against AMARE in %” value in the assay on Amaranthus retroflexus is listed as 100%. Besides, in the assay on Avena fatua, the “Post-emergence herbicidal activity against AVEFA in %” value came to 100%. In the assay with Polygonum convolvulus, the “Pre-emergence herbicidal activity against POLCO in %” value came out at 90%.

As for `COC(=O)[C@H]1C[C@H](NC(=O)[C@@]2(C)CC(c3cc(F)cc(F)c3)=NO2)CO1` (mixture of isomers) [I-55, methyl trans-4-[[(5R)-3-(3,5-difluorophenyl)-5-methyl-4H-isoxazole-5-carbonyl]amino]tetrahydrofuran-2-carboxylate], the pest or weed control at 320 g/ha with Viola tricolor was 90%; with Amaranthus retroflexus, 80%; in assay [1], 80 to 100%; in the assay on Avena fatua, 90%.

As to `COC(=O)[C@H]1C[C@@H](NC(=O)[C@@]2(C)CC(c3cc(F)cc(F)c3)=NO2)CO1` (mixture of isomers) [I-09, methyl cis-4-[[(5R)-3-(3,5-difluorophenyl)-5-methyl-4H-isoxazole-5-carbonyl]amino]tetrahydrofuran-2-carboxylate], the pest or weed control at 320 g/ha in the assay on Viola tricolor was 80%; in assay [1], 80 to 100%; in the assay with Avena fatua, 90%. This compound also displayed a pest or weed control at 80 g/ha with Polygonum convolvulus of 100%.

For `COC(=O)[C@H]1C[C@@H](NC(=O)C2(OC)CC(c3cc(F)cc(F)c3)=NO2)CO1` (relative stereo) [I-05, methyl cis-4-[[3-(3,5-difluorophenyl)-5-methoxy-4H-isoxazole-5-carbonyl]amino]tetrahydrofuran-2-carboxylate], the values for the pest or weed control at 320 g/ha (in assay [1]; in the assay with Avena fatua) were 80 to 100% and 100%, respectively. Further, in the assay with Polygonum convolvulus, the pest or weed control at 80 g/ha is 80%.

On to `COC(=O)C1COCC1NC(=O)[C@@]1(C)CC(c2cc(F)cc(F)c2)=NO1` (stereo partly drawn) [I-28, methyl 4-[[(5R)-3-(3,5-difluorophenyl)-5-methyl-4H-isoxazole-5-carbonyl]amino]tetrahydrofuran-3-carboxylate], for which the pest or weed control at 320 g/ha with Viola tricolor was 80%; in the assay with Amaranthus retroflexus it was 80%; in assay [1], 80 to 100%; in the assay on Avena fatua it was 100%.

`COC(=O)[C@H]1C[C@@H](NC(=O)C2(C)CC(c3cc(C)cc(Br)c3)=NO2)CO1` (relative stereo) [I-04, methyl cis-4-[[3-(3-bromo-5-methylphenyl)-5-methyl-4H-isoxazole-5-carbonyl]amino]tetrahydrofuran-2-carboxylate]: the values for the pest or weed control at 320 g/ha (with Viola tricolor; in assay [1]; in the assay with Avena fatua) were 80%, 80 to 100% and 100%, respectively. For the same compound, in the assay on Polygonum convolvulus, the pest or weed control at 80 g/ha was 90%.

`C=CC1(C(=O)N[C@H]2CO[C@@H](C(=O)OC)C2)CC(c2cc(Cl)cc(Cl)c2)=NO1` (relative stereo) [I-03, methyl cis-4-[[3-(3,5-dichlorophenyl)-5-vinyl-4H-isoxazole-5-carbonyl]amino]tetrahydrofuran-2-carboxylate]: the pest or weed control at 320 g/ha in assay [1] is 80 to 100%; in the assay with Avena fatua, 80%. Moreover, the pest or weed control at 80 g/ha in the assay on Polygonum convolvulus was found to be 80%.

On to `COC(=O)[C@H]1C[C@@H](NC(=O)C2(OC)CC(c3ccccc3)=NO2)CO1` (relative stereo) [I-14, methyl cis-4-[(5-methoxy-3-phenyl-4H-isoxazole-5-carbonyl)amino]tetrahydrofuran-2-carboxylate], for which the pest or weed control at 320 g/ha in assay [1] is 80 to 100%; in the assay on Avena fatua, 100%.

For the compound `C=C[C@]1(C(=O)NC2COCC2C(=O)OC)CC(c2cc(F)cc(F)c2)=NO1` (stereo partly drawn) [I-26, methyl 4-[[(5S)-3-(3,5-difluorophenyl)-5-vinyl-4H-isoxazole-5-carbonyl]amino]tetrahydrofuran-3-carboxylate], the pest or weed control at 320 g/ha was 80% with Viola tricolor, 80% in the assay with Amaranthus retroflexus, 80 to 100% in assay [1] and 90% with Avena fatua.

For the compound `COC(=O)[C@@]1(OC)C[C@@H](NC(=O)C2(C)CC(c3cccc(F)c3)=NO2)CO1` (stereo partly drawn) [I-47, methyl (2R,4R)-4-[[3-(3-fluorophenyl)-5-methyl-4H-isoxazole-5-carbonyl]amino]-2-methoxytetrahydrofuran-2-carboxylate], the figures for the pest or weed control at 320 g/ha with Viola tricolor and in the assay on Avena fatua were 80% and 100%, respectively. Further, the pest or weed control at 80 g/ha in the assay with Polygonum convolvulus stood at 90%.

As for `COC(=O)C1COCC1NC(=O)C1(OC)CC(c2cc(Cl)cc(Cl)c2)=NO1` (centres unmarked) [I-29, methyl 4-[[3-(3,5-dichlorophenyl)-5-methoxy-4H-isoxazole-5-carbonyl]amino]tetrahydrofuran-3-carboxylate], the results for the pest or weed control at 320 g/ha (in the assay on Viola tricolor; in assay [1]; with Avena fatua) were 80%, 80 to 100% and 90%, respectively. The pest or weed control at 80 g/ha in the assay on Polygonum convolvulus was 100%.

As for `C=C[C@]1(C(=O)N[C@@H]2CO[C@@H](C(=O)OC)C2)CC(c2cc(F)cc(F)c2)=NO1` (mixture of isomers) [I-56, methyl trans-4-[[(5S)-3-(3,5-difluorophenyl)-5-vinyl-4H-isoxazole-5-carbonyl]amino]tetrahydrofuran-2-carboxylate], the pest or weed control at 320 g/ha is 90% in the assay with Viola tricolor, 90% in the assay with Amaranthus retroflexus, 80 to 100% in assay [1] and 100% in the assay on Avena fatua.

(Values after US11597724B2, “Herbicidally active 3-phenylisoxazoline-5-carboxamides of tetrahydro and dihydrofuran carboxylic acids and esters” (Bayer Aktiengesellschaft, priority 2017, dated 2023).)
